Blank lines part the entries; values can stand above or below the molecule they belong to.
Legend:
[1] = target: Liver Receptor Homolog-1 (LRH-1, NR5A2) (Homo sapiens, UniProt O00482); test: crystal structure; format: binding
[2] = target: T1, DAX-1 140-154 (Homo sapiens, UniProt P51843); test: SPR
T1 chain: PRQGSILYSLLTSSK

Chain of Liver Receptor Homolog-1 (LRH-1, NR5A2) (O00482 294-541): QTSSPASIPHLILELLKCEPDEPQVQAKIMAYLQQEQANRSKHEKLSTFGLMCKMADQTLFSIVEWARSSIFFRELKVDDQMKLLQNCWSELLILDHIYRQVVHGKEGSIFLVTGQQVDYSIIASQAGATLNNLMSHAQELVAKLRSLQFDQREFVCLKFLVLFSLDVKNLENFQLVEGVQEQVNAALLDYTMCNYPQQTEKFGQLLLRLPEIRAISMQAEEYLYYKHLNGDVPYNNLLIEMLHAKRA

- Kd [1]: 120 ± 9 nM
Molecule: CCCCCCCCCCCCCCCC(=O)OC[C@@H](COP(=O)(O)O[C@H]1[C@H](O)[C@@H](OP(=O)(O)O)[C@H](OP(=O)(O)O)[C@@H](OP(=O)(O)O)[C@H]1O)OC(=O)CCCCCCCCCCCCCCC [PIP3]

- Kd [2]: 90 nM
B1: LRH-1 LBD (protein)
chain: SIPHLILELLKCEPDEPQVQAKIMAYLQQEQANRSKHEKLSTFGLMCKMADQTLFSIVEWARSSIFFRELKVDDQMKLLQNCWSELLILDHIYRQVVHGKEGSIFLVTGQQVDYSIIASQAGATLNNLMSHAQELVAKLRSLQFDQREFVCLKFLVLFSLDVKNLENFQLVEGVQEQVNAALLDYTMCNYPQQTEKFGQLLLRLPEIRAISMQAEEYLYYKHLNGDVPYNNLLIEMLHAK

Source: publication PMC4651778 (Journal of structural biology, 2015)
